Data as given in patent US10000498B2, “Selective proton coupled folate transporter and folate receptor, and GARFTase inhibitor compounds and methods of using the same” (Duquesne University of the Holy Spirit, priority 2008, dated 2018).
Like-named read-outs stand apart in the source and are kept apart here.

Tests used:
[1] = test system: R2/VC cells (vector control R2 CHO); experiment: Growth inhibition of vector control R2 CHO cells (Cell TiterBlue, 96 h); format: cell-based, Chinese hamster; settings: Cricetulus griseus, read-out: Growth inhibition 50% inhibitory concentration, R2/VC
[2] = molecular target: T1, purified recombinant mouse GARFTase (Mus musculus, UniProt Q64737); experiment: In vitro GARFTase inhibition assay; format: biochemical
T1 sequence (Q64737 2-1010 limits assumed): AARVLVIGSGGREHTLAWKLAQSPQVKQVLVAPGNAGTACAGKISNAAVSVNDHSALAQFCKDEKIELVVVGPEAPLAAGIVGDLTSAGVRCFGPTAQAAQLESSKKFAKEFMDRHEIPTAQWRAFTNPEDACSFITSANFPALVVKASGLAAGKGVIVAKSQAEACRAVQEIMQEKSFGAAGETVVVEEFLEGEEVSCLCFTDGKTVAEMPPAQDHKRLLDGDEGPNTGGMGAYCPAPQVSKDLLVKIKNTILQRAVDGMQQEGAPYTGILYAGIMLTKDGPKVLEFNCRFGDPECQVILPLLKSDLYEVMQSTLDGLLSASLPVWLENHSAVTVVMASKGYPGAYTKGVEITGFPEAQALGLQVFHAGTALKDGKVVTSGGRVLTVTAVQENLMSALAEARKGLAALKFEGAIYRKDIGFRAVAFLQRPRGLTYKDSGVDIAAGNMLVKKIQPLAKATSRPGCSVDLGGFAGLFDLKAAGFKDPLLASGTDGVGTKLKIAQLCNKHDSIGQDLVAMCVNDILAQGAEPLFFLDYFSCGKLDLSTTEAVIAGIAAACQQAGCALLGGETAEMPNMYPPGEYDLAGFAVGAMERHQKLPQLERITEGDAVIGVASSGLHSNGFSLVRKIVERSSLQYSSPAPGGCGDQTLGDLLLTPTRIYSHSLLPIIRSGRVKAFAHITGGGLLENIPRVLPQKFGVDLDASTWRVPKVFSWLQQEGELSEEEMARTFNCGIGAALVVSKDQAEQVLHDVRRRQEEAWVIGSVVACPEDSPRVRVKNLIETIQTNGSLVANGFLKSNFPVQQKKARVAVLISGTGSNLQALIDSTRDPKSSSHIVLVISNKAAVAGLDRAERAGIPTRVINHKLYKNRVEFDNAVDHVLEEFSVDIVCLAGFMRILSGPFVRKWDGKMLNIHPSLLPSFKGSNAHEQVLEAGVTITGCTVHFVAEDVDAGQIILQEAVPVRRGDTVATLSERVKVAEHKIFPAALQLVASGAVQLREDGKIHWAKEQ

KB cells = experiment: Nucleoside/AICA protection from growth inhibition in KB cells; format: cell-based, human
[3] = test system: RT16 cells (hFRα-expressing Chinese hamster ovary); experiment: Growth inhibition of FR-expressing RT16 CHO cells, with or without folic acid; format: cell-based; settings: for IC50: Cricetulus griseus
FRα = FRα (Homo sapiens, UniProt P15328); experiment: FRα binding affinity relative to folic acid; settings: folic acid set to 1
FRα, sequence (P15328 25-234): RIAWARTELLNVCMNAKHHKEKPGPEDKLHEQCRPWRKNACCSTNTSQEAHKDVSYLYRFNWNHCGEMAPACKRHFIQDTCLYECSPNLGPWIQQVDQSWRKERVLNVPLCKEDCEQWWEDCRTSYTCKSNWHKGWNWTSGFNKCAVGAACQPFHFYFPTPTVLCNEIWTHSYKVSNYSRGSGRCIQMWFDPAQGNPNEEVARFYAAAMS

SMILES: Nc1nc2[nH]c(CCCCc3ccc(C(=O)N[C@@H](CCC(=O)O)C(=O)O)s3)cc2c(=O)[nH]1 [AAG154353, (S)-2-({5-[4-(2-amino-4-oxo-4,7-dihydro-3H-pyrrolo[2,3-d]pyrimidin-6-yl)-butyl]thiophene-2-carbonyl}-amino)-pentanedioic acid]
- IC50 [1]: > 1000 nM
- IC50 [2]: 60 nM
- Effect of 5-amino-4-imidazolecarboxamide (AICA) on growth inhibition of KB cells (KB cells; AICA 320 μM): completely protected
- Effect of adenosine on growth inhibition of KB cells (KB cells; adenosine 60 μM): completely protective
- Effect of thymidine on growth inhibition of KB cells (KB cells; thymidine 10 μM): did not alter the growth inhibitory effects
- Growth inhibition / FR-targeted activity toward RT16 cells (in words) [3]: high level of FR-targeted activity
- IC50 ([3]; RT16, read-out: Growth inhibition (IC50, nM) hFRα RT16): 2 nM
- IC50 ([3]; RT16, read-out: Growth inhibition (IC50, nM) hFRα RT16 (+FA)): > 1000 nM
- FRα binding affinity compared to folic acid (FRα): very high binding affinities
